Biological target: Leukotriene B4 receptor 1 (Homo sapiens, UniProt Q15722)
Experiment: IP-One assay (LTB4R), antagonist mode at up to 50 µM ( vs. 300 nM LTB4); call rule not given here
Type: functional
Parameters: compound concentration < 50 uM

Leukotriene B4 receptor 1, sequence (Q15722 whole entry): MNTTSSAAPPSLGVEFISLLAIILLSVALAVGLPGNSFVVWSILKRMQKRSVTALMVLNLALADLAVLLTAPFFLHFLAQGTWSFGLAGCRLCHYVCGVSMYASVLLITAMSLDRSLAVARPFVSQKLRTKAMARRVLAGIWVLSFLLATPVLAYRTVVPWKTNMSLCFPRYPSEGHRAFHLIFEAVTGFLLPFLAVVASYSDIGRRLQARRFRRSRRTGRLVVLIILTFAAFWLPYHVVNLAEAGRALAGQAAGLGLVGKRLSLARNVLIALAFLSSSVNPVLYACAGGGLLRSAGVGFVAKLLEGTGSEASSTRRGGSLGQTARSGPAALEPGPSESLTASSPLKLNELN

- EC50: > 50 µM (not active)
Compound: CCCCC(=O)N1CC2(CCN(c3ccccc3-c3nnn[nH]3)CC2)C1

— ChEMBL document CHEMBL5723582, “Data for DCP probe T-10430” (2024)
